# Test system: Beagle dogs
# Assay: Subchronic toxicity test in Beagle dogs: serum biochemistry
# Type: in vivo
# Conditions: dogs
# Protocol: HZ1006 was administered orally to dogs (four/sex/group) at doses of 80, 40, 20, 5 and 0 (control) mg/kg/day, and the dosage volume was 2 mL/kg. The dogs received test doses with the exact amounts on a weekly basis based on current body weights. […] The other dogs in the above groups were dissected on the planned days. For the other groups, half of the dogs were anatomized on d28 and the remaining half on d42.
# The following indexes were examined for the dogs used in the study, twice during the pre-dosage period and on d14, d28 and d42. The following parameters were evaluated on d28 and d42 for the rats in the study:
# The animal blood samples were collected in the tubes containing the coagulator and centrifuged at 500 g for 10 min; the supernatant was then collected into a new tube. The serum biochemistry indexes included the following: alanine aminotransferase (ALT), alkaline phosphatase (ALP), aspartate aminotransferase (AST), blood urea (BU), lactate dehydrogenase (LDH), total bilirubin (TBIL), creatinine (Crea), albumin (ALB), total protein (TP), triglycerides (TG), total cholesterol (TCH), γ-glutamyltranspeptidase (g-GT), glucose (GLU), creatine phosphokinase (CPK), uric acid (UA), phosphorus (P), and calcium (Ca^2+). The above parameters were analyzed using an Automatic Analyzer 7080 provided by Hitachi High-Technologies Corp. (Tokyo, Japan). An Na/K/Cl Analyzer EasyLyte PLUS from Medica Corp. (Bedford, MA, USA), was used to determine the levels of chloride (Cl^−), sodium (Na^+) and potassium (K^+) in the blood samples.
# [1] = 20 mg/kg/day oral, d42 (recovery)
# [2] = 40 mg/kg/day oral, d0 (pre-dose)
# [3] = 40 mg/kg/day oral, d42 (recovery)
# [4] = 80 mg/kg/day oral, d0 (pre-dose)
# [5] = 80 mg/kg/day oral, d42 (recovery)
smiles,measurement,setting,value
CCCCCCCNc1cc(/C=C/C(=O)NO)ccc1OCCN(CC)CC [HZ1006],ALP: Alkaline phosphatase,"20 mg/kg/day oral, d28",0.98 ± 0.27 µmol/s/L
same,ALT: Alanine aminotransferase,"20 mg/kg/day oral, d28",486 ± 90 nmol/s/L
same,AST: Aspartate aminotransferase,"20 mg/kg/day oral, d28",408 ± 57 nmol/s/L
same,BU: Blood urea,"20 mg/kg/day oral, d28",5.37 ± 1.78 mmol/L
same,CPK: Creatine phosphokinase,"20 mg/kg/day oral, d28",2.38 ± 0.53 µmol/s/L
same,CREA: Creatinine,"20 mg/kg/day oral, d28",52.1 ± 10.3 µmol/L
same,LDH: Lactate dehydrogenase,"20 mg/kg/day oral, d28",1.54 ± 0.74 µmol/s/L
same,TBIL: Total bilirubin,"20 mg/kg/day oral, d28",2.29 ± 0.31 µmol/L
same,TCH: Total cholesterol,"20 mg/kg/day oral, d28",3.95 ± 0.55 mmol/L
same,TG: Triglycerides,"20 mg/kg/day oral, d28",0.34 ± 0.05 mmol/L
same,ALP: Alkaline phosphatase,[1],1.00 ± 0.24 µmol/s/L
same,ALT: Alanine aminotransferase,[1],523 ± 148 nmol/s/L
same,AST: Aspartate aminotransferase,[1],412 ± 31 nmol/s/L
same,BU: Blood urea,[1],4.05 ± 0.37 mmol/L
same,CPK: Creatine phosphokinase,[1],2.17 ± 0.30 µmol/s/L
same,CREA: Creatinine,[1],49.6 ± 0.6 µmol/L
same,LDH: Lactate dehydrogenase,[1],2.28 ± 0.93 µmol/s/L
same,TBIL: Total bilirubin,[1],1.88 ± 0.19 µmol/L
same,TCH: Total cholesterol,[1],3.81 ± 0.18 mmol/L
same,TG: Triglycerides,[1],0.33 ± 0.12 mmol/L
same,ALP: Alkaline phosphatase,[2],1.62 ± 0.40 µmol/s/L
same,ALT: Alanine aminotransferase,[2],526 ± 179 nmol/s/L
same,AST: Aspartate aminotransferase,[2],462 ± 57 nmol/s/L
same,BU: Blood urea,[2],3.95 ± 0.48 mmol/L
same,CPK: Creatine phosphokinase,[2],3.27 ± 0.76 µmol/s/L
same,CREA: Creatinine,[2],49.2 ± 6.2 µmol/L
same,LDH: Lactate dehydrogenase,[2],3.39 ± 1.55 µmol/s/L
same,TBIL: Total bilirubin,[2],2.24 ± 0.24 µmol/L
same,TCH: Total cholesterol,[2],5.38 ± 1.95 mmol/L
same,TG: Triglycerides,[2],0.41 ± 0.10 mmol/L
same,ALP: Alkaline phosphatase,"40 mg/kg/day oral, d14",1.03 ± 0.32 µmol/s/L
same,ALT: Alanine aminotransferase,"40 mg/kg/day oral, d14",433 ± 304 nmol/s/L
same,AST: Aspartate aminotransferase,"40 mg/kg/day oral, d14",313 ± 23 nmol/s/L
same,BU: Blood urea,"40 mg/kg/day oral, d14",4.52 ± 1.05 mmol/L
same,CPK: Creatine phosphokinase,"40 mg/kg/day oral, d14",2.36 ± 0.19 µmol/s/L
same,CREA: Creatinine,"40 mg/kg/day oral, d14",52.5 ± 6.1 µmol/L
same,LDH: Lactate dehydrogenase,"40 mg/kg/day oral, d14",1.29 ± 0.68 µmol/s/L
same,TBIL: Total bilirubin,"40 mg/kg/day oral, d14",1.81 ± 0.24 µmol/L
same,TCH: Total cholesterol,"40 mg/kg/day oral, d14",4.47 ± 0.71 mmol/L
same,TG: Triglycerides,"40 mg/kg/day oral, d14",0.41 ± 0.12 mmol/L
same,ALP: Alkaline phosphatase,"40 mg/kg/day oral, d28",1.30 ± 0.24 µmol/s/L
same,ALT: Alanine aminotransferase,"40 mg/kg/day oral, d28",347 ± 78 nmol/s/L
same,AST: Aspartate aminotransferase,"40 mg/kg/day oral, d28",378 ± 71 nmol/s/L
same,BU: Blood urea,"40 mg/kg/day oral, d28",4.66 ± 0.96 mmol/L
same,CPK: Creatine phosphokinase,"40 mg/kg/day oral, d28",3.00 ± 0.94 µmol/s/L
same,CREA: Creatinine,"40 mg/kg/day oral, d28",52.6 ± 9.8 µmol/L
same,LDH: Lactate dehydrogenase,"40 mg/kg/day oral, d28",2.76 ± 2.49 µmol/s/L
same,TBIL: Total bilirubin,"40 mg/kg/day oral, d28",2.04 ± 0.43 µmol/L
same,TCH: Total cholesterol,"40 mg/kg/day oral, d28",4.66 ± 1.85 mmol/L
same,TG: Triglycerides,"40 mg/kg/day oral, d28",0.43 ± 0.18 mmol/L
same,ALP: Alkaline phosphatase,[3],1.34 ± 0.34 µmol/s/L
same,ALT: Alanine aminotransferase,[3],514 ± 112 nmol/s/L
same,AST: Aspartate aminotransferase,[3],468 ± 80 nmol/s/L
same,BU: Blood urea,[3],4.87 ± 1.56 mmol/L
same,CPK: Creatine phosphokinase,[3],3.00 ± 1.32 µmol/s/L
same,CREA: Creatinine,[3],58.8 ± 2.0 µmol/L
same,LDH: Lactate dehydrogenase,[3],3.50 ± 2.49 µmol/s/L
same,TBIL: Total bilirubin,[3],1.88 ± 0.08 µmol/L
same,TCH: Total cholesterol,[3],4.55 ± 1.10 mmol/L
same,TG: Triglycerides,[3],0.45 ± 0.04 mmol/L
same,ALP: Alkaline phosphatase,[4],1.62 ± 0.49 µmol/s/L
same,ALT: Alanine aminotransferase,[4],591 ± 143 nmol/s/L
same,AST: Aspartate aminotransferase,[4],493 ± 103 nmol/s/L
same,BU: Blood urea,[4],4.38 ± 0.72 mmol/L
same,CPK: Creatine phosphokinase,[4],3.24 ± 0.77 µmol/s/L
same,CREA: Creatinine,[4],53.4 ± 5.2 µmol/L
same,LDH: Lactate dehydrogenase,[4],2.71 ± 0.97 µmol/s/L
same,TBIL: Total bilirubin,[4],2.64 ± 0.41 µmol/L
same,TCH: Total cholesterol,[4],4.03 ± 1.04 mmol/L
same,TG: Triglycerides,[4],0.38 ± 0.15 mmol/L
same,ALP: Alkaline phosphatase,"80 mg/kg/day oral, d14",1.27 ± 1.15 µmol/s/L
same,ALT: Alanine aminotransferase,"80 mg/kg/day oral, d14",312 ± 38 nmol/s/L
same,AST: Aspartate aminotransferase,"80 mg/kg/day oral, d14",386 ± 104 nmol/s/L
same,BU: Blood urea,"80 mg/kg/day oral, d14",4.66 ± 0.93 mmol/L
same,CPK: Creatine phosphokinase,"80 mg/kg/day oral, d14",3.29 ± 1.86 µmol/s/L
same,CREA: Creatinine,"80 mg/kg/day oral, d14",58.2 ± 4.8 µmol/L
same,LDH: Lactate dehydrogenase,"80 mg/kg/day oral, d14",1.76 ± 1.85 µmol/s/L
same,TBIL: Total bilirubin,"80 mg/kg/day oral, d14",2.74 ± 2.93 µmol/L
same,TCH: Total cholesterol,"80 mg/kg/day oral, d14",4.62 ± 2.51 mmol/L
same,TG: Triglycerides,"80 mg/kg/day oral, d14",0.56 ± 0.28 mmol/L
same,ALP: Alkaline phosphatase,"80 mg/kg/day oral, d28",1.01 ± 0.27 µmol/s/L
same,ALT: Alanine aminotransferase,"80 mg/kg/day oral, d28",307 ± 51 nmol/s/L
same,AST: Aspartate aminotransferase,"80 mg/kg/day oral, d28",310 ± 59 nmol/s/L
same,BU: Blood urea,"80 mg/kg/day oral, d28",5.25 ± 1.21 mmol/L
same,CPK: Creatine phosphokinase,"80 mg/kg/day oral, d28",1.73 ± 0.24 µmol/s/L
same,CREA: Creatinine,"80 mg/kg/day oral, d28",54.3 ± 8.9 µmol/L
same,LDH: Lactate dehydrogenase,"80 mg/kg/day oral, d28",0.97 ± 0.30 µmol/s/L
same,TBIL: Total bilirubin,"80 mg/kg/day oral, d28",2.19 ± 0.20 µmol/L
same,TCH: Total cholesterol,"80 mg/kg/day oral, d28",4.16 ± 1.39 mmol/L
same,TG: Triglycerides,"80 mg/kg/day oral, d28",0.45 ± 0.11 mmol/L
same,ALP: Alkaline phosphatase,[5],0.99 ± 0.14 µmol/s/L
same,ALT: Alanine aminotransferase,[5],549 ± 181 nmol/s/L
same,AST: Aspartate aminotransferase,[5],460 ± 83 nmol/s/L
same,BU: Blood urea,[5],4.93 ± 0.50 mmol/L
same,CPK: Creatine phosphokinase,[5],2.86 ± 0.53 µmol/s/L
same,CREA: Creatinine,[5],65.9 ± 11.3 µmol/L
same,TBIL: Total bilirubin,[5],1.90 ± 0.23 µmol/L
same,TCH: Total cholesterol,[5],3.52 ± 0.84 mmol/L
same,TG: Triglycerides,[5],0.40 ± 0.14 mmol/L
